Experimental data taken from the supplement of paper PMC4862054.

What was measured:
Settings in all cases: incubation time: 72 h
CAL-85-1 [1] = assay: normalised viability (% of control), CellTiter-Blue; higher = more viable cells (about 100 = DMSO control)
Experimental: (§1)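 DSRT, CellTiter-Blue viability, 72 h incubation. Signal is normalised to DMSO and benzethonium chloride controls. Value is the normalised response at dose 9.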

MDA-MB-453 [2] = assay: as above
Experimental: as §1

CAL-148 [3] = assay: as above
Experimental: as §1

HDQ-P1 [4] = assay: as above
Experimental: as §1

DU-4475 [5] = assay: as above
Experimental: as §1

CAL-51 [6] = assay: as above
Experimental: as §1

CAL-85-1 [7] = assay: normalised response (% of control), CellTiter-Glo; higher = more viable cells (100 = DMSO, 0 = benzethonium chloride kill control)
Experimental: (§2)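 DSRT, 72 h incubation, CellTox Green / CellTiter-Glo readout. Signal is normalised to DMSO and benzethonium chloride controls. Value is the normalised response at the highest dose.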

HCC1937 = assay: as above
Experimental: as §2

BT-474 = assay: as above
Experimental: as §2

MDA-MB-468 = assay: as above
Experimental: as §2

MDA-MB-453 [8] = assay: as above
Experimental: as §2

CAL-148 [9] = assay: as above
Experimental: as §2

HDQ-P1 [10] = assay: as above
Experimental: as §2

DU-4475 [11] = assay: as above
Experimental: as §2

HCC1143 = assay: as above
Experimental: as §2

MFM-223 = assay: as above
Experimental: as §2

BT-549 = assay: as above
Experimental: as §2

Hs578T = assay: as above
Experimental: as §2

HCC1599 = assay: as above
Experimental: as §2

CAL-120 = assay: as above
Experimental: as §2

MCF-10A = assay: as above
Experimental: as §2

SK-BR-3 = assay: as above
Experimental: as §2

CAL-51 [12] = assay: as above
Experimental: as §2

MDA-MB-436 = assay: as above
Experimental: as §2

MDA-MB-231 = assay: as above
Experimental: as §2

Molecule `C#Cc1cccc(Nc2ncnc3cc(OCCOC)c(OCCOC)cc23)c1` [Erlotinib] (10000 nM) has a normalised viability (CAL-85-1 [1]) of 47.7%, a normalised viability (MDA-MB-453 [2]) of 55.1% and a normalised viability (CAL-148 [3]) of 24.7%. It also gave a normalised viability (HDQ-P1 [4]) of 68%, a normalised viability (DU-4475 [5]) of 84.5% and a normalised viability (CAL-51 [6]) of 50.9%. It also gave a normalised response (CAL-85-1 [7]) of 40.2%, a normalised response (HCC1937) of 76.4% and a normalised response (BT-474) of 75.9%. For the same molecule, the normalised response (MDA-MB-468) was 59.1%, the normalised response (MDA-MB-453 [8]) was 90% and the normalised response (CAL-148 [9]) was 69.7%. It also gave a normalised response (HDQ-P1 [10]) of 66.1%, a normalised response (DU-4475 [11]) of 101% and a normalised response (HCC1143) of 79.7%. The normalised response (MFM-223) was 78.1%, the normalised response (BT-549) was 75.4% and the normalised response (Hs578T) was 85.8%. The normalised response (HCC1599) was 92.7%, the normalised response (CAL-120) was 79.8% and the normalised response (MCF-10A) was 30.9%. It also gave a normalised response (SK-BR-3) of 48%, a normalised response (CAL-51 [12]) of 77% and a normalised response (MDA-MB-436) of 79%. For the same molecule, the normalised response (MDA-MB-231) was 83.4%.

With `CN(C)/N=N/c1[nH]cnc1C(N)=O` [Dacarbazine] (10000 nM) the normalised viability (CAL-85-1 [1]) was 87.5%, the normalised viability (MDA-MB-453 [2]) was 105% and the normalised viability (CAL-148 [3]) was 96.2%. It also gave a normalised viability (HDQ-P1 [4]) of 104%, a normalised viability (DU-4475 [5]) of 103% and a normalised viability (CAL-51 [6]) of 91.2%. The normalised response (CAL-85-1 [7]) was 101%, the normalised response (HCC1937) was 96.5% and the normalised response (BT-474) was 102%. For the same molecule, the normalised response (MDA-MB-468) was 99.8%, the normalised response (MDA-MB-453 [8]) was 99.9% and the normalised response (CAL-148 [9]) was 103%. The normalised response (HDQ-P1 [10]) was 93.4%, the normalised response (DU-4475 [11]) was 107% and the normalised response (HCC1143) was 109%. It also gave a normalised response (MFM-223) of 103%, a normalised response (BT-549) of 99.4% and a normalised response (Hs578T) of 100%. It also gave a normalised response (HCC1599) of 109%, a normalised response (CAL-120) of 86% and a normalised response (MCF-10A) of 102%. It also gave a normalised response (SK-BR-3) of 111%, a normalised response (CAL-51 [12]) of 135% and a normalised response (MDA-MB-436) of 108%. For the same molecule, the normalised response (MDA-MB-231) was 111%.

Work on `COc1cc2nccc(Oc3ccc(NC(=O)C4(C(=O)Nc5ccc(F)cc5)CC4)cc3)c2cc1OC` [Cabozantinib] (1000 nM) yielded a normalised viability (CAL-85-1 [1]) of 45.1%, a normalised viability (MDA-MB-453 [2]) of 37.1% and a normalised viability (CAL-148 [3]) of 78.7%. It also gave a normalised viability (HDQ-P1 [4]) of 88.5%, a normalised viability (DU-4475 [5]) of 108% and a normalised viability (CAL-51 [6]) of 86.5%. The normalised response (CAL-85-1 [7]) was 107%, the normalised response (HCC1937) was 95.4% and the normalised response (BT-474) was 83.8%. It also gave a normalised response (MDA-MB-468) of 87.2%, a normalised response (MDA-MB-453 [8]) of 95.4% and a normalised response (CAL-148 [9]) of 104%. The normalised response (HDQ-P1 [10]) was 94%, the normalised response (DU-4475 [11]) was 102% and the normalised response (HCC1143) was 95.3%. It also gave a normalised response (MFM-223) of 64.6%, a normalised response (BT-549) of 104% and a normalised response (Hs578T) of 89%. It also gave a normalised response (HCC1599) of 102%, a normalised response (CAL-120) of 95.2% and a normalised response (MCF-10A) of 94.6%. For the same molecule, the normalised response (SK-BR-3) was 107%, the normalised response (CAL-51 [12]) was 111% and the normalised response (MDA-MB-436) was 101%. The normalised response (MDA-MB-231) was 79.2%.

`O=C1CCC(N2C(=O)c3ccccc3C2=O)C(=O)N1` (configuration not stated) [Thalidomide] (10000 nM) was tested, and the normalised viability (CAL-85-1 [1]) was 104%, the normalised viability (MDA-MB-453 [2]) was 102% and the normalised viability (CAL-148 [3]) was 106%. For the same molecule, the normalised viability (HDQ-P1 [4]) was 105%, the normalised viability (DU-4475 [5]) was 97.5% and the normalised viability (CAL-51 [6]) was 90.6%. The normalised response (CAL-85-1 [7]) was 93.5%, the normalised response (HCC1937) was 98% and the normalised response (BT-474) was 94.6%. It also gave a normalised response (MDA-MB-468) of 91.6%, a normalised response (MDA-MB-453 [8]) of 97.2% and a normalised response (CAL-148 [9]) of 92.4%. The normalised response (HDQ-P1 [10]) was 98.2%, the normalised response (DU-4475 [11]) was 93.3% and the normalised response (HCC1143) was 94.7%. For the same molecule, the normalised response (MFM-223) was 100%, the normalised response (BT-549) was 96.7% and the normalised response (Hs578T) was 96.8%. For the same molecule, the normalised response (HCC1599) was 101%, the normalised response (CAL-120) was 100% and the normalised response (MCF-10A) was 98.8%. For the same molecule, the normalised response (SK-BR-3) was 106%, the normalised response (CAL-51 [12]) was 84.7% and the normalised response (MDA-MB-436) was 96%. The normalised response (MDA-MB-231) was 94.2%.

`C=C(c1ccc(C(=O)O)cc1)c1cc2c(cc1C)C(C)(C)CCC2(C)C` [Bexarotene] (10000 nM) showed a normalised viability (CAL-85-1 [1]) of 95.1%, a normalised viability (MDA-MB-453 [2]) of 86.7% and a normalised viability (CAL-148 [3]) of 79.8%. For the same molecule, the normalised viability (HDQ-P1 [4]) was 103%, the normalised viability (DU-4475 [5]) was 116% and the normalised viability (CAL-51 [6]) was 90.2%. For the same molecule, the normalised response (CAL-85-1 [7]) was 101%, the normalised response (HCC1937) was 96.6% and the normalised response (BT-474) was 82.1%. The normalised response (MDA-MB-468) was 110%, the normalised response (MDA-MB-453 [8]) was 110% and the normalised response (CAL-148 [9]) was 79.9%. It also gave a normalised response (HDQ-P1 [10]) of 106%, a normalised response (DU-4475 [11]) of 100% and a normalised response (HCC1143) of 101%. For the same molecule, the normalised response (MFM-223) was 95.1%, the normalised response (BT-549) was 99.9% and the normalised response (Hs578T) was 80.8%. For the same molecule, the normalised response (HCC1599) was 59.5%, the normalised response (CAL-120) was 112% and the normalised response (MCF-10A) was 82.8%. For the same molecule, the normalised response (SK-BR-3) was 72.1%, the normalised response (CAL-51 [12]) was 98.3% and the normalised response (MDA-MB-436) was 95.9%. The normalised response (MDA-MB-231) was 105%.

Work on `C[C@]12CC[C@@H]3c4ccc(O)cc4C[C@@H](CCCCCCCCC[S+]([O-])CCCC(F)(F)C(F)(F)F)[C@H]3[C@@H]1CC[C@@H]2O` (some centres not stated) [Fulvestrant] (1000 nM) yielded a normalised response (CAL-85-1 [7]) of 95.4%, a normalised response (HCC1937) of 94% and a normalised response (BT-474) of 99%. It also gave a normalised response (MDA-MB-468) of 96%, a normalised response (MDA-MB-453 [8]) of 95.6% and a normalised response (CAL-148 [9]) of 104%. It also gave a normalised response (HDQ-P1 [10]) of 101%, a normalised response (DU-4475 [11]) of 110% and a normalised response (HCC1143) of 106%. For the same molecule, the normalised response (MFM-223) was 99.3%, the normalised response (BT-549) was 99.3% and the normalised response (Hs578T) was 103%. For the same molecule, the normalised response (HCC1599) was 103%, the normalised response (CAL-120) was 105% and the normalised response (MCF-10A) was 101%. For the same molecule, the normalised response (SK-BR-3) was 104%, the normalised response (CAL-51 [12]) was 124% and the normalised response (MDA-MB-436) was 105%. For the same molecule, the normalised response (MDA-MB-231) was 98.9%.

`N.N.[Cl][Pt][Cl]` [Cisplatin] (1000 nM) was tested, and the normalised response (CAL-85-1 [7]) was 104%, the normalised response (HCC1937) was 106% and the normalised response (BT-474) was 94%. The normalised response (MDA-MB-468) was 105%, the normalised response (MDA-MB-453 [8]) was 106% and the normalised response (CAL-148 [9]) was 96.9%. It also gave a normalised response (HDQ-P1 [10]) of 95.3%, a normalised response (DU-4475 [11]) of 94.7% and a normalised response (HCC1143) of 103%. The normalised response (MFM-223) was 99.9%, the normalised response (BT-549) was 101% and the normalised response (Hs578T) was 100%. For the same molecule, the normalised response (HCC1599) was 101%, the normalised response (CAL-120) was 105% and the normalised response (MCF-10A) was 94%. It also gave a normalised response (SK-BR-3) of 92.3%, a normalised response (CAL-51 [12]) of 87.5% and a normalised response (MDA-MB-436) of 100%. For the same molecule, the normalised response (MDA-MB-231) was 96.3%.

Molecule `C[C@@H](Oc1cc(-c2cnn(C3CCNCC3)c2)cnc1N)c1c(Cl)ccc(F)c1Cl` [Crizotinib] (1000 nM) has a normalised response (CAL-85-1 [7]) of 92.7%, a normalised response (HCC1937) of 101% and a normalised response (BT-474) of 84.9%. The normalised response (MDA-MB-468) was 88.1%, the normalised response (MDA-MB-453 [8]) was 92.2% and the normalised response (CAL-148 [9]) was 99.3%. The normalised response (HDQ-P1 [10]) was 90.7%, the normalised response (DU-4475 [11]) was 103% and the normalised response (HCC1143) was 102%. The normalised response (MFM-223) was 97.4%, the normalised response (BT-549) was 93.1% and the normalised response (Hs578T) was 95.9%. For the same molecule, the normalised response (HCC1599) was 100%, the normalised response (CAL-120) was 104% and the normalised response (MCF-10A) was 102%. It also gave a normalised response (SK-BR-3) of 104%, a normalised response (CAL-51 [12]) of 108% and a normalised response (MDA-MB-436) of 102%. For the same molecule, the normalised response (MDA-MB-231) was 83.9%.
